Where two headings read alike, the source gives them in different places.
Experiments:
[1] = test system: Vesticular Stomatitis Virus (VSV); assay type: cell-based; conditions: MRC-5; for Anti-viral activity (protection of CPE) / viral activity, VSV: vitamin B12 = hydroxocobalamin (HC)
[2] = rabbits; doses up to 100 mg/kg body weight; cited from earlier work
[3] = test system: Human Hepatitis B Virus (HBV); assay: HBV DNA copies in HepG2.2.15 culture medium by Lightcycler real-time PCR; assay type: cell-based; conditions: for Antiviral effect on HBV (HBV DNA copies): HepG2.2.15, 9 days
Experimental: HepG2.2.15 cells, a cell line that was stably transfected with HBV genome, were cultured in RPMI-1640 with fetal bovine serum at either 2 or 4% final concentration and with no antibiotics. The cells were seeded in a 96-well plate at a density of 2×10^4 cells/well and grown overnight. […] Triplicate samples were measured for each concentration. The cells were incubated at 37° C. for 9 days. Drug/medium was changed daily. On day 9, the culture media containing released HBV virions were harvested and used to extract HBV DNA.
HBV DNA from drug-treated HepG2.2.15 cell culture media was extracted using QIAmp DNA mini kit—blood and body fluid spin column according to manufacturer's instructions. Briefly, 10 μl of QIAGEN proteinase K was added to 1.5 ml Eppendorf tube. 50 μl cell supernatant and 50 μl AL buffer were added to the tube. The samples were incubated at 56° C. water bath for 3 h. At the end of incubation, 50 μl ethanol was added to the sample. The mixture was transferred to a QIAamp spin column and centrifuged at 14000 rpm for 1 min. The filtrate was discarded. 50 μl Buffer AW1 was then added to the column and centrifuged at 14000 rpm for 1 min. Following washing and recentrifugation, DNA was eluted in 50 μl dH2O.
HBV DNA was detected by real-time PCR using Lightcycler assay. The reaction was performed in 20 μl, comprising the following: 6.4/4.8 μl dH2O, 2 μl 25 mM MgCl2, 1 μl 10 μM sense primer, 1 μl 10 μM antisense primer, 8/1.6 μl LightCycler Probe (fluorescein-labeled, 5 μM), 0.8/1.6 μl LightCycler Probe 2 (LC Red 640-labeled, 10 μM), 2 μl LC FastStart DNA Master Hyb Probes, 1 μl uracil DNA glycosylase.
PCR mix was aliquoted into glass capillaries and 5 μl DNA template was then added to the PCR mix. A range of HBV plasmid DNA (1×10^8, 1×10^7, 1×10^6, . . . , 1×10^2, 25 copies) was used as standards for quantitative analysis.
The antiviral effects of the test compounds were calculated using DNA copy numbers as an endpoint. Specifically, the antiviral activities were calculated based on the following formula: Antiviral effect=(Ccontrol−Ctest)/Ccontrol whereby the Ccontrol is the HBV DNA copies in the control wells (without drug); the Ctest is the HBV DNA copies in the test wells with a given concentration of a test compound.
The enhancing or antagonistic effect was analyzed mathematically using the median effect equation (Chou and Talalay, 1984) by computer software CalcuSyn (Biosoft, St. Louis).

[4] = mice; doses up to 1 g/kg body weight; cited from earlier work
[5] = test system: Herpes Simplex Virus Type 2 (HSV-2); assay: CPE inhibition assay in MRC-5 cells, HSV-2; assay type: cell-based
ND4 mouse model = assay: Clinical signs in the ND4 demyelinating transgenic mouse model; assay type: in vivo; conditions: ND4 mice; for mean clinical scores / clinical signs (FIG. 5): intraperitoneal, paclitaxel alone 20 mg/kg once a week, vitamin B12 10 mg/kg once a week, combination with paclitaxel 5 mg/kg three times per week
Source text: (§1) In this model, the severity of the clinical signs increased until a maximum around 6 months with animals dying around 8 to 9 months of age. Clinical signs assessed included general shaking, seizures, head jerk, hind limb and tail shiver, wobbly gait and limp tail. The scale of zero (absence) to four (constant and uncontrollable movements) was used for each of the clinical signs.
All treatments began when the mice reached 3 months of age at which time signs of demyelinating disease were evident. Treatment was stopped at time of sacrifice.
Treatment was started when the animals were 3 months of age and continued for 11 weeks. The animals were evaluated twice a week for clinical signs and the scores were averaged on a weekly basis. Refer to example 1 for more experimental details.
as §1, with “The” for “In this model, the”, “increase” for “increased”, “include” for “included”
Mice (4 animals per group) were treated with vitamin B12 (cyanocobalamin) alone at a dose of 15 mg/kg, weekly and in combination with P-16. P-16 was administered alone and in combination with vitamin B12 at a dose of 1 mg/kg, tri-weekly. All treatments began when the mice reached 3 months of age at which time signs of demyelinating disease were evident. Treatment was stopped at time of sacrifice.
The ND4 transgenic mice received one of the following treatments through intraperitoneal injections: 1) paclitaxel (TAXOL®) at a dose of 20 mg/kg once a week; 2) vitamin B12 at a dose of 10 mg/kg once a week and paclitaxel (TAXOL®) at a dose of 5 mg/kg three times per week; and 3) vitamin B12 at a dose of 10 mg/kg once a week. All treatments started when the mice reached 3 months of age, at which time signs of demyelinating disease were evident.

[6] = test system: Mouse ascite astrocytoma cells; conditions: overnight, no treatment 0.8955
Experimental: Mouse ascite astrocytoma cells were seeded in a 96-well plate and grown to 60% confluence in standard growth conditions.
96® AQueous One Solution Cell Proliferation Assay was used as a colorimetric method for determining the number of viable cells in proliferations. […] 96® AQueous One Solution Reagent directly to culture wells, incubating for 1-4 hours and then recording absorbance at 490 nm with a 96 well plate reader. The quantity of formazan product as measured by the amount of 490 nm absorbance is known in the art to be directly proportional to the number of living cells in the culture.

[7] = Toxicity in the applicant's animal studies; assay type: in vivo; conditions: concentrations of 15 mg/kg of vitamin B12 in mice
GFAP [8] = assay: GFAP in brain of ND4 mice (immunohistochemistry, slot blot of homogenates); assay type: in vivo, mouse; conditions: Vitamin B12 15 mg/kg, Normal 1.0, untreated ND4 4.4
Source text: After the various treatments, the mice were sacrificed and brain sections removed for GFAP staining and quantitation. The brain region of hippocampus, adjacent to the dentate gyrus was fixed in formalin, paraffin-embedded and sectioned at 5 μm. Immunohistochemistry with anti-GFAP antibody was used to stain for GFAP. Glial fibrillary acidic protein was a protein expressed by astrocytes (particularly reactive astrocytes) and was used as a marker for these cells.
In addition, quantification of GFAP within the brains of normal, ND4 untreated and ND4 treated mice was carried out to provide a more precise level of protein expression. Whole brain homogenates were assayed for GFAP by slot blot. Brains were homogenized in a buffer containing 50 mM Tris-HCl pH 7.6, 0.5 mM DTT, 1 mM EDTA, and 0.43 mM PMSF. The homogenate was centrifuged at 11000 rpm for 30 min at 4° C. The pellet was isolated and resuspended in a buffer containing 10 mM sodium phosphate pH 7.5, 2 mM DTT, 6 mM urea and 1 mM EDTA. Samples were loaded onto the slot blot apparatus (BioDot, Biorad) under vacuum. The blots were reacted with anti-GFAP antibodies and then a secondary antibody. The blots were developed and the relative amounts of each band quantified.

GFAP [9] = assay: GFAP in brain of EAE mice (immunohistochemistry, slot blot of homogenates); assay type: in vivo, mouse
Experimental: EAE mice were treated as described previously in Example 2. After the various treatments, the mice were sacrificed and brain sections removed for GFAP staining and quantitation. The brain region of hippocampus, adjacent to the dentate gyrus was fixed in formalin, paraffin-embedded and sectioned at 5 μm. Immunohistochemistry with anti-GFAP antibody was used to stain for GFAP.
In addition, quantification of GFAP within the brains of normal, EAE untreated and EAE treated mice was carried out to provide a more precise level of protein expression. Whole brain homogenates were assayed for GFAP by slot blot. Brains were homogenized in a buffer containing 50 mM Tris-HCl pH 7.6, 0.5 mM DTT, 1 mM EDTA, and 0.43 mM PMSF. The homogenate was centrifuged at 11000 rpm for 30 min at 4° C. The pellet was isolated and resuspended in a buffer containing 10 mM sodium phosphate pH 7.5, 2 mM DTT, 6 mM urea and 1 mM EDTA. Samples were loaded onto the slot blot apparatus (BioDot, Biorad) under vacuum. The blots were reacted with anti-GFAP antibodies and then a secondary antibody. The blots were developed and the relative amounts of each band quantified.

[10] = HC 1 μg/ml, fraction (ODTest−OD0)/(ODControl−OD0)
[11] = Vitamin B12 (methylcobalamin) 25 μg/ml

Which “Antiviral effect on VSV (CPE inhibition)” value [1, 10] does the source give for `C/C1=C2/[N-][C@H]([C@H](CC(N)=O)[C@@]2(C)CCC(=O)NC[C@@H](C)OP(=O)([O-])O[C@H]2[C@@H](O)[C@@H](n3cnc4cc(C)c(C)cc43)O[C@@H]2CO)[C@]2(C)N=C(/C(C)=C3N=C(/C=C4N=C1[C@@H](CCC(N)=O)C\4(C)C)[C@@H](CCC(N)=O)[C@]\3(C)CC(N)=O)[C@@H](CCC(N)=O)[C@]2(C)CC(N)=O.[Co+3].[OH-]` [HC, hydroxocobalamin] here?
The value was at most 0.001.

And the “Antiviral effect on VSV (CPE inhibition)” value ([1]; HC 10 μg/ml, fraction)?
The value was at most 0.001.

And the “Antiviral effect on VSV (CPE inhibition)” value ([1]; HC 100 μg/ml, fraction)?
Its value is 0.039.

And the “Antiviral effect on VSV (CPE inhibition)” value ([1]; HC 500 μg/ml, fraction)?
Its value is at most 0.001.

And the “Antiviral effect on VSV (CPE inhibition)” value ([1]; HC 1000 μg/ml, fraction)?
The value was 0.002.

What about the acute toxicity [2] of the same molecule?
The acute toxicity was “no toxicities were observed”.

What about the “Antiviral effect on HBV (HBV DNA copies)” value ([3]; HC 1 μg/ml, fraction (Ccontrol−Ctest)/Ccontrol) of the same molecule?
Its value is 0.001.

What about the “Antiviral effect on HBV (HBV DNA copies)” value ([3]; HC 10 μg/ml, fraction) of the same molecule?
Its value is 0.001.

And the “Antiviral effect on HBV (HBV DNA copies)” value ([3]; HC 100 μg/ml, fraction)?
Its value is 0.001.

And the “Antiviral effect on HBV (HBV DNA copies)” value ([3]; HC 500 μg/ml, fraction)?
The value was 0.112.

And the acute toxicity [4]?
The acute toxicity was “no toxicities were observed”.

And the “Antiviral effect on HSV-2 (CPE inhibition)” value [5, 10]?
The value was 0.014.

What about the “Antiviral effect on HSV-2 (CPE inhibition)” value ([5]; HC 10 μg/ml, fraction) of the same molecule?
The value was 0.032.

What about the “Antiviral effect on HSV-2 (CPE inhibition)” value ([5]; HC 100 μg/ml, fraction) of the same molecule?
Its value is 0.056.

And the “Antiviral effect on HSV-2 (CPE inhibition)” value ([5]; HC 500 μg/ml, fraction)?
Its value is 0.166.

And the “Antiviral effect on HSV-2 (CPE inhibition)” value ([5]; HC 1000 μg/ml, fraction)?
The value was 0.210.

For `CC(=O)O[C@H]1C(=O)[C@@]2(C)[C@H]([C@H](OC(=O)c3ccccc3)[C@]3(O)C[C@H](OC(=O)[C@H](O)[C@@H](NC(=O)c4ccccc4)c4ccccc4)C(C)=C1C3(C)C)[C@]1(OC(C)=O)CO[C@@H]1C[C@@H]2O` [paclitaxel], which “mean clinical scores / clinical signs (FIG. 5)” value (ND4 mouse model) is on record?
Its value is “significant attenuation of mean clinical scores”.

With `C/C1=C2/[N-][C@H]([C@H](CC(N)=O)[C@@]2(C)CCC(=O)NC[C@H](C)OP(=O)([O-])O[C@H]2[C@@H](O)[C@@H](n3cnc4cc(C)c(C)cc43)O[C@@H]2CO)[C@]2(C)N=C(/C(C)=C3N=C(/C=C4N=C1[C@@H](CCC(N)=O)C\4(C)C)[C@@H](CCC(N)=O)[C@]\3(C)CC(N)=O)[C@@H](CCC(N)=O)[C@]2(C)CC(N)=O.[CH3-].[Co+3]` [vitamin B12 (methylcobalamin), methylcobalamin] as the molecule, how does the “Measure of Proliferative Activity (Absorbance at 490 nm)” value (shortened to “Measure of Proliferative Activity”) [6, 11] read?
The value was “decrease in proliferative activity”.

For “CSTMMSRSHKTRSHHV (Synthetically generated peptide) [P-16]”, which “clinical signs of MS (FIG. 3)” value (ND4 mouse model; P-16 1 mg/kg tri-weekly, vitamin B12 (cyanocobalamin) 15 mg/kg weekly) is on record?
Its value is “attenuation of clinical signs”.

For cyanocobalamin [Vitamin B12], which “Anti-viral activity (protection of CPE) / viral activity, VSV” value [1] is on record?
The value was “significantly increased”.

What about the “viral activity (HBV)” value ([3]; HepG2.2.15, vitamin B12 = hydroxocobalamin (HC)) of the same molecule?
Its value is “not”.

And the “mean clinical scores / clinical signs (FIG. 5)” value (ND4 mouse model)?
Its value is “significant attenuation of mean clinical scores”.

And the “clinical signs of MS (FIG. 1)” value (ND4 mouse model; vitamin B12 (cyanocobalamin) 15 mg/kg weekly, interferon-beta 1a 5000 IU tri-weekly, from 3 months of age)?
Its value is “attenuation of clinical signs”.

What about the toxicity in animals [7] of the same molecule?
Its toxicity in animals is “no toxicity has been found”.

What about the “Relative Amount of GFAP (+/−SD)” value (GFAP [8]) of the same molecule?
The value was 2.8 +/− 0.1.

And the “Relative Amount of GFAP (+/−SD)” value (GFAP [9]; EAE brain homogenates, Vitamin B12 15 mg/kg, Normal 1.0, untreated EAE 4.2)?
The value was 4.2 +/− 0.2.

What about the “levels of activated astrocytes and levels of GFAP” value (GFAP [9]; EAE mice treated as in Example 2) of the same molecule?
Its value is “not effective in decreasing the levels of GFAP”.

What about the “Measure of Proliferative Activity” value [6, 11] of the same molecule?
Its value is 0.2985.

Which “Anti-viral activity (protection of CPE) / viral activity, VSV” value [1] does the source give for interferon-alpha here?
The value was “significantly increased”.

What about the “Antiviral effect on VSV (CPE inhibition)” value ([1]; interferon 5 IU/ml, fraction) of the same molecule?
Its value is 0.296.

What about the “Antiviral effect on VSV (CPE inhibition)” value ([1]; interferon 10 IU/ml, fraction) of the same molecule?
The value was 0.387.

And the “Antiviral effect on VSV (CPE inhibition)” value ([1]; interferon 50 IU/ml, fraction)?
The value was 0.950.

And the “Antiviral effect on VSV (CPE inhibition)” value ([1]; interferon 100 IU/ml, fraction)?
The value was 0.996.

What about the “Antiviral effect on VSV (CPE inhibition)” value ([1]; interferon 500 IU/ml, fraction) of the same molecule?
Its value is 0.942.

What about the “Antiviral effect on HSV-2 (CPE inhibition)” value ([5]; interferon 5 IU/ml, fraction) of the same molecule?
Its value is 0.093.

And the “Antiviral effect on HSV-2 (CPE inhibition)” value ([5]; interferon 10 IU/ml, fraction)?
Its value is 0.139.

And the “Antiviral effect on HSV-2 (CPE inhibition)” value ([5]; interferon 50 IU/ml, fraction)?
Its value is 0.218.

What about the “Antiviral effect on HSV-2 (CPE inhibition)” value ([5]; interferon 100 IU/ml, fraction) of the same molecule?
The value was 0.282.

What about the “Antiviral effect on HSV-2 (CPE inhibition)” value ([5]; interferon 500 IU/ml, fraction) of the same molecule?
Its value is 0.271.

B1: Mouse Interferon-beta: mouse interferon-beta used on mouse astrocytoma cells (protein, UniProt P01575 22-182, looked up)
Interferon beta: INYKQLQLQERTNIRKCQELLEQLNGKINLTYRADFKIPMEMTEKMQKSYTAFAIQEMLQNVFLVFRNNFSSTGWNETIVVRLLDELHQQTVFLKTVLEEKQEERLTWEMSSTALHLKSYYWRVQRYLKLMKYNSYAWMVVRAEIFRNFLIIRRLTRNFQN
Which “Measure of Proliferative Activity” value ([6]; Mouse Interferon-beta 500 IU/ml) does the source give for B1 here?
The value was 0.3855.

And the “Measure of Proliferative Activity” value ([6]; Mouse Interferon-beta 500 IU/ml, listed as mice interferon-beta)?
Its value is “decrease in proliferative activity”.

Reference: patent US6894033B2, “Combination therapies using vitamin B12 and therapeutic agents for treatment of viral, proliferative and inflammatory diseases” (Transition Therapeutics Inc., priority 2001, dated 2005)
